Experimental data taken from the NIST ThermoML archive (doi:10.1021/je060271a).
Several values for one entry are separate records, joined by “and”; a condition that tells them apart may be missing. Identical values can stand only once.

Settings: 343.16 K, Liquid, Vibrating tube method

CCCCCC(=O)OCC(COC(=O)CCCCC)(COC(=O)CCCCC)COC(=O)CCCCC [pentaerythritol tetrahexanoate]
Settings	mass density
12946 kPa	966.8 kg/m3
12969 kPa	966.9 kg/m3
13446 kPa	967.2 kg/m3
13485 kPa	967.3 kg/m3
13510 kPa	967.1 kg/m3
13521 kPa	967.2 kg/m3
13524 kPa	967.2 kg/m3
13527 kPa	967.3 kg/m3
13530 kPa	967.2 kg/m3
13534 kPa	967.1 kg/m3
13539 kPa	967.2 kg/m3
13542 kPa	967.2 kg/m3
13545 kPa	967.2 kg/m3
13548 kPa	967.2 kg/m3
13550 kPa	967.1 kg/m3
13554 kPa	967.3 kg/m3
13556 kPa	967.3 kg/m3
13562 kPa	967.2 kg/m3
13571 kPa	967.4 kg/m3
13578 kPa	967.2 kg/m3
13593 kPa	967.3 kg/m3
13604 kPa	967.2 kg/m3 and 967.4 kg/m3
13605 kPa	967.3 kg/m3 and 967.2 kg/m3
13606 kPa	967.2 kg/m3 and 967.3 kg/m3
13607 kPa	967.2 kg/m3
13608 kPa	967.2 kg/m3 and 967.3 kg/m3 and 967 kg/m3
13609 kPa	967.3 kg/m3
13610 kPa	967.3 kg/m3
13612 kPa	967.2 kg/m3
13620 kPa	967.2 kg/m3
13632 kPa	967.3 kg/m3
13650 kPa	967.3 kg/m3
13671 kPa	967.3 kg/m3
13695 kPa	967.3 kg/m3
13719 kPa	967.4 kg/m3
13749 kPa	967.3 kg/m3
13774 kPa	967.4 kg/m3
13798 kPa	967.5 kg/m3
13828 kPa	967.5 kg/m3
13853 kPa	967.4 kg/m3
13878 kPa	967.4 kg/m3
13960 kPa	967.5 kg/m3
14011 kPa	967.6 kg/m3
14041 kPa	967.5 kg/m3
14066 kPa	967.5 kg/m3
14096 kPa	967.6 kg/m3
14122 kPa	967.7 kg/m3
14146 kPa	967.7 kg/m3
14176 kPa	967.7 kg/m3
14201 kPa	967.5 kg/m3
14227 kPa	967.6 kg/m3
14310 kPa	967.7 kg/m3
14444 kPa	967.9 kg/m3
14501 kPa	967.9 kg/m3
14527 kPa	967.9 kg/m3
14558 kPa	967.9 kg/m3
14584 kPa	967.8 kg/m3
14611 kPa	967.9 kg/m3
14643 kPa	967.9 kg/m3
14670 kPa	968 kg/m3
14696 kPa	968 kg/m3
14723 kPa	967.9 kg/m3
14870 kPa	968.1 kg/m3
14897 kPa	968.1 kg/m3
14930 kPa	968.2 kg/m3
14958 kPa	968.2 kg/m3
14985 kPa	968.3 kg/m3
15019 kPa	968.2 kg/m3
15047 kPa	968.3 kg/m3
15080 kPa	968.3 kg/m3
15108 kPa	968.2 kg/m3
15136 kPa	968.3 kg/m3
15164 kPa	968.3 kg/m3
15198 kPa	968.4 kg/m3
15226 kPa	968.5 kg/m3
15255 kPa	968.4 kg/m3
15642 kPa	968.6 kg/m3
15668 kPa	968.6 kg/m3
15694 kPa	968.7 kg/m3
15725 kPa	968.7 kg/m3
15751 kPa	968.8 kg/m3
15777 kPa	968.7 kg/m3
15808 kPa	968.8 kg/m3
15834 kPa	968.8 kg/m3
15864 kPa	968.9 kg/m3
15891 kPa	968.9 kg/m3
15916 kPa	968.8 kg/m3
15943 kPa	969 kg/m3
15974 kPa	968.8 kg/m3
16000 kPa	969 kg/m3
16057 kPa	969 kg/m3
16359 kPa	969 kg/m3
16386 kPa	969.2 kg/m3
16412 kPa	969.2 kg/m3
16439 kPa	969.4 kg/m3
16472 kPa	969.2 kg/m3
16494 kPa	969.2 kg/m3
16872 kPa	969.5 kg/m3
16899 kPa	969.5 kg/m3
16931 kPa	969.5 kg/m3
16957 kPa	969.5 kg/m3
16982 kPa	969.7 kg/m3
17013 kPa	969.6 kg/m3
17038 kPa	969.6 kg/m3
17064 kPa	969.6 kg/m3
17094 kPa	969.8 kg/m3
17120 kPa	969.7 kg/m3
17146 kPa	969.7 kg/m3
17177 kPa	969.8 kg/m3
17203 kPa	969.7 kg/m3
17229 kPa	969.8 kg/m3
17260 kPa	969.7 kg/m3
17286 kPa	969.9 kg/m3
17312 kPa	969.7 kg/m3
17344 kPa	969.7 kg/m3
17371 kPa	969.9 kg/m3
17398 kPa	969.9 kg/m3
17430 kPa	969.9 kg/m3
19111 kPa	971.1 kg/m3
19142 kPa	970.9 kg/m3
19168 kPa	971.1 kg/m3
19194 kPa	971.2 kg/m3
19226 kPa	971.2 kg/m3
19252 kPa	971.1 kg/m3
19282 kPa	971.1 kg/m3
19307 kPa	971.2 kg/m3
19331 kPa	971.4 kg/m3
19353 kPa	971.2 kg/m3
19375 kPa	971.2 kg/m3
19400 kPa	971.3 kg/m3
19422 kPa	971.2 kg/m3
19443 kPa	971.3 kg/m3
19469 kPa	971.4 kg/m3
19491 kPa	971.3 kg/m3
19512 kPa	971.3 kg/m3
19539 kPa	971.3 kg/m3
19561 kPa	971.4 kg/m3
19583 kPa	971.4 kg/m3
19609 kPa	971.4 kg/m3
19868 kPa	971.6 kg/m3
19886 kPa	971.6 kg/m3
19908 kPa	971.6 kg/m3
19925 kPa	971.7 kg/m3
19941 kPa	971.7 kg/m3
